Values joined by “and” are separate entries in the source; they are usually repeats but may differ in a detail not shown here. Equal values may be shown once. *1 amine or outer side, *2 acyl side, *3 side chain or, on linkers, in order; H or OH if unused. Bridges are numbered along the chain shown (N, C = ends). Bi = bismuth bicyclization of the Cys thiols (peptides reacted with BiBr3), [Bi]([*:1])([*:2])[*:3]; Lys(NF) = lysine with naphthofluorescein (NF) attached to its side chain; Lys(dye) = not defined here; AEEA = NCCOCCOCC(=O)O
How the values were obtained:
[1] = test system: HeLa cells; experiment: Flow cytometry of HeLa cells, total cellular uptake of TMR-labeled peptides; assay type: cell-based; settings: 5 μM TMR-labeled peptide, 2 h, 37° C., relative to CPP12 (100%)
Procedure: (§1) Flow cytometry. HeLa cells were cultured in 12-well plates (1.5×10^5 cells/well) overnight. The following day, cells were incubated with 5 μM fluorescently labeled peptide for 2 h in DMEM supplemented with 1% FBS and 1% antibiotic solution. DMSO was used as a negative control. After incubation, cells were detached from plate with 350 μL of 0.25% Trypsin-EDTA solution, diluted with Dulbecco's phosphate buffered saline (DPBS), and pelleted at 300 g for 5 min. Cells were washed twice with DPBS, resuspended in DPBS, and analyzed on a BD FACS LSR II flow cytometer.
(§2) To evaluate their cell entry efficiencies, the BCPs and pBCPs were labeled with tetramethylrhodamine (TMR) or naphthofluorescein (NF) on a C-terminal lysine residue (FIGS. 2A, 2B, and 4). […] The labeled peptides were purified again by reversed-phase HPLC and their authenticity was confirmed by high-resolution mass spectrometry.
(§3) HeLa cells were treated with 5 μM dye-labeled BCPs (or pBCPs), CPP12, Tat, or DMSO (equal volume) for 2 h at 37° C., washed to remove any peptides in the medium, and analyzed by flow cytometry. The mean fluorescence intensity (MFI) value of TMR (which is pH insensitive) reflects the total amount of CPP inside the HeLa cells (total cellular uptake). On the other hand, NF is a pH sensitive dye, having an apparent pKa of 7.8. NF is unprotonated and fluorescent inside the neutral environment of the cytosol (and nucleus) but is nearly completely protonated and nonfluorescent in the acidic environments of endosomes and lysosomes. Thus, the MFI value of NF provides a convenient estimate of the peptides that have reached the cytosol.

[2] = test system: HeLa cells; experiment: Flow cytometry of HeLa cells, cytosolic entry of NF-labeled peptides; assay type: cell-based; settings: for MFI^NF (Cytosolic Entry) / cytosolic entry efficiency in the presence of 10% FBS: 2 h, 37° C.; for MFI^NF (Cytosolic Entry): relative to CPP12 (100%); for cytosolic entry efficiency in the presence of 10% FBS: relative to CPP12
Procedure: as §1, §2, §3
Note that cell entry assays were performed by treating HeLa cell with 2 μM naphthofluorescein (NF)-labeled peptide for 2 h at 37° C. Under this condition, the BCPs enter the cell almost exclusively by endocytosis and endosomal escape. A small fraction of the CPP12^NF-treated cells (˜10%) underwent direct translocation of CPP12^NF; this fraction of highly fluorescent cells was not included in the data analysis. The cellular entry of pBCP427-4 was confirmed by live-cell confocal microscopy (FIG. 6).
BCP16a, BCP16b, and pBCP427-4a were labeled with NF and their cytosolic entry efficiencies were assessed by flow cytometry analysis of HeLa cells after treatment with 2 μM peptide at 37° C. for 2 h. […] CPP12 was previously shown to be highly sensitive to serum proteins (Buyanova, M., et al., (2022). Discovery of a Cyclic Cell-Penetrating Peptide with Improved Endosomal Escape and Cytosolic Delivery Efficiency. Molecular pharmaceuties, 19 (5). 1378-1388).

[3] = 2 μM NF-labeled peptide, 1% FBS

Row | Compound | MFI^NF (Cytosolic Entry) ([2]; 5 μM NF-labeled peptide) | MFI^NF (Cytosolic Entry) [2, 3] | also measured
1 | CARCRRYWC (Ac-CARCRRYWC-{AEEA-Lys(dye)-NH2}; linker 1-4-9 via Bi (inferred); reading uncertain) [pBCP5] | – | – | MFI^TMR (Total Cellular Uptake) [1]: 9.2%
2 | Ac-CFΦCRRRRC [BCP1] | – | – | MFI^TMR (Total Cellular Uptake) [1]: 12 ± 2%
3 | Ac-CFΦRRRRCAAAC [BCP11] | 13% | – | –
4 | CARCRRRWYWC (Ac-CARCRRRWYWC-{AEEA-Lys(dye)-NH2}; linker 1-4-11 via Bi (inferred); reading uncertain) [pBCP3] | – | – | MFI^TMR (Total Cellular Uptake) [1]: 3%
5 | HS-CH2-CO-φSNφFCfQrRC [BCP427-2] | – | 118 ± 4% | –
6 | Ac-CΣΦRRCrrC [BCP9] | 43% | – | –
7 | HS-CH2-CO-φSNφFCfQrRCRrFa [BCP427-1] | – | 84 ± 2% | –
8 | HS-CH2-CO-rRrRC(Bta)φC [BCP15] | – | 108 ± 4% | –
9 | Ac-CWSQWFCFQRRC (Ac-CWSQWFCFQRRC-{AEEA-Lys(NF)-NH2}; linker 1-7-12 via Bi (inferred)) [pBCP427-7] | – | 69 ± 3% | –
10 | HS-CH2-CO-rRrRCφ(Bta)φC [BCP16b] | – | 98% and 98 ± 1% | cytosolic entry efficiency in the presence of 10% FBS ([2]; 2 μM NF-labeled peptide): 169%
11 | Ac-CRRRRCΦFC [BCP2] | – | – | MFI^TMR (Total Cellular Uptake) [1]: 15 ± 4%
12 | CFFRRRCRAC (Ac-CFFRRRCRAC-{AEEA-Lys(dye)-NH2}; linker 1-7-10 via Bi (inferred); reading uncertain) [pBCP16] | 15 ± 1% | – | –
13 | Ac-CWSNWFCFQRRCR (Ac-CWSNWFCFQRRCR-{AEEA-Lys(NF)-NH2}; linker 1-7-12 via Bi (inferred)) [pBCP427-3] | – | 101 ± 3% | –
14 | CWSNWFCFQRRCRRFA (Ac-CWSNWFCFQRRCRRFA-{AEEA-Lys(dye)-NH2}; linker 1-7-12 via Bi (inferred); reading uncertain) [pBCP427] | 41% and 41 ± 5% | 131 ± 1% | –
15 | CC(=O)N[C@@H](C)C(=O)N[C@@H](Cc1c[nH]c2ccccc12)C(=O)N[C@@H](CO)C(=O)N[C@@H](CC(N)=O)C(=O)N[C@@H](Cc1c[nH]c2ccccc12)C(=O)N[C@@H](Cc1ccccc1)C(=O)N[C@@H](C)C(=O)N[C@@H](Cc1ccccc1)C(=O)N[C@@H](CCC(N)=O)C(=O)N[C@@H](CCCNC(=N)N)C(=O)N[C@@H](CCCNC(=N)N)C(=O)N[C@@H](C)C(=O)NCCOCCOCC(=O)N[C@@H](CCCCNC(=O)c1ccc2c(c1)C(=O)OC21c2ccc3cc(O)ccc3c2Oc2c1ccc1cc(O)ccc21)C(N)=O [pBCP427-4Ala] | – | 18% and 18 ± 2% | –
16 | Ac-CrRrRCΦfFC [BCP5] | 45 ± 1% | – | –
17 | AWYRRARAA [pBCP4a, linear variant of pBCP4, three cysteine residues replaced with Ala] | 5.4% | – | cytosolic entry, fold less active than pBCP4 ([2]; 5 μM, linear Ala variant vs cyclized peptide): ~2 fold
18 | CFFFRRRCRAC (Ac-CFFFRRRCRAC-{AEEA-Lys(dye)-NH2}; linker 1-8-11 via Bi (inferred); reading uncertain) [pBCP17] | 15 ± 1% | – | –
19 | CWYRRRCRAC (Ac-CWYRRRCRAC-{AEEA-Lys(dye)-NH2}; linker 1-7-10 via Bi (inferred); reading uncertain) [pBCP9] | 12 ± 4% | – | –
20 | CWYRRRCAC (Ac-CWYRRRCAC-{AEEA-Lys(dye)-NH2}; linker 1-7-9 via Bi (inferred); reading uncertain) [pBCP12] | 12 ± 1% | – | –
21 | Ac-CWSNWFCQRRC (Ac-CWSNWFCQRRC-{AEEA-Lys(NF)-NH2}; linker 1-7-11 via Bi (inferred)) [pBCP427-6] | – | 65 ± 1% | –

Row | Compound | MFI^NF (Cytosolic Entry) ([2]; 5 μM NF-labeled peptide) | MFI^NF (Cytosolic Entry) [2, 3] | also measured
22 | CWYCRRRC (Ac-CWYCRRRC-{AEEA-Lys(dye)-NH2}; linker 1-4-8 via Bi (inferred); reading uncertain) [pBCP11] | 14 ± 1% | – | –
23 | Ac-CFΦRRCrrC [BCP8] | 38 ± 1% | – | –
24 | CWYRCRRC (Ac-CWYRCRRC-{AEEA-Lys(dye)-NH2}; linker 1-5-8 via Bi (inferred); reading uncertain) [pBCP13] | 11 ± 1% | – | –
25 | CFWRCRRC (Ac-CFWRCRRC-{AEEA-Lys(dye)-NH2}; linker 1-5-8 via Bi (inferred); reading uncertain) [pBCP6] | – | – | MFI^TMR (Total Cellular Uptake) [1]: 9.0 ± 0.7%
26 | Ac-CFΦRrRCAAC [BCP13] | 30 ± 3% | – | –
27 | Ac-CWSNWFCFQRRCRRF (Ac-CWSNWFCFQRRCRRF-{AEEA-Lys(NF)-NH2}; linker 1-7-12 via Bi (inferred)) [pBCP427-1] | – | 94 ± 22% | –
28 | Ac-CFΦRRCRRC [BCP3] | – | – | MFI^TMR (Total Cellular Uptake) [1]: 13 ± 2%
29 | Ac-CWSNWCFQRRC (Ac-CWSNWCFQRRC-{AEEA-Lys(NF)-NH2}; linker 1-6-11 via Bi (inferred)) [pBCP427-5] | – | 76 ± 1% | –
30 | CRRRRCWYWC (Ac-CRRRRCWYWC-{AEEA-Lys(dye)-NH2}; linker 1-6-10 via Bi (inferred); reading uncertain) [pBCP1] | 12 ± 4% | – | MFI^TMR (Total Cellular Uptake) [1]: 9.3 ± 1.9%
31 | Ac-CRRRφCF(dNle)QWC [BCP9A5-2] | – | 43 ± 2% | –
32 | HS-CH2-CO-rRrRCΦφC [BCP14] | – | 86 ± 2% | –
33 | HS-CH2-CO-rRrRcΦ(Bta)φC [BCP16a] | – | 156% and 156 ± 4% | cytosolic entry efficiency in the presence of 10% FBS ([2]; 2 μM NF-labeled peptide): 821%
34 | CRRRWYWCAAC (Ac-CRRRWYWCAAC-{AEEA-Lys(dye)-NH2}; linker 1-8-11 via Bi (inferred); reading uncertain) [pBCP8] | – | – | MFI^TMR (Total Cellular Uptake) [1]: 8.4%
35 | Ac-CfΦRrCRrC [BCP10] | 56 ± 32% | – | –
36 | Ac-CRRRφRFCQWC [BCP9A5-1] | – | 30 ± 1% | –
37 | Ac-CWSNWFCFQRRCRR (Ac-CWSNWFCFQRRCRR-{AEEA-Lys(NF)-NH2}; linker 1-7-12 via Bi (inferred)) [pBCP427-2] | – | 45 ± 1% | –
38 | CYYRRCRAC (Ac-CYYRRCRAC-{AEEA-Lys(dye)-NH2}; linker 1-6-9 via Bi (inferred); reading uncertain) [pBCP15] | 16 ± 3% | – | –
39 | Ac-CrRrRCΦfC [BCP4] | 51 ± 16% | 51 ± 16% | –
40 | CWYWRRCRAC (Ac-CWYWRRCRAC-{AEEA-Lys(dye)-NH2}; linker 1-7-10 via Bi (inferred); reading uncertain) [pBCP10] | 17% and 17 ± 2% | – | cytosolic entry, fold less active than CPP12 ([2]; 5 μM): 6 fold; cytosolic entry, fold more active than Tat ([2]; 5 μM): 5 fold
41 | CWYRRCRAC (Ac-CWYRRCRAC-{AEEA-Lys(dye)-NH2}; linker 1-6-9 via Bi (inferred); reading uncertain) [pBCP4] | 10 ± 4% | – | MFI^TMR (Total Cellular Uptake) [1]: 11 ± 1%
42 | CRRCRWFC (Ac-CRRCRWFC-{AEEA-Lys(dye)-NH2}; linker 1-4-8 via Bi (inferred); reading uncertain) [pBCP7] | – | – | MFI^TMR (Total Cellular Uptake) [1]: 10 ± 0.1%
